Holding throughout (test): NCI-60 cell line screen, 48 h
The test system of assay [1] is M14 melanoma.
The test system of assay [2] is CCRF-CEM leukemia.
Assay [3] has as its system SK-MEL-2 melanoma.
Assay [4] deals with ACHN renal.
The test system of assay [5] is SK-OV-3 ovarian.
In assay [6] the test system is HCT-15 colon.
Assay [7] deals with SNB-19 CNS.
Assay [8] deals with MOLT-4 leukemia.
Assay [9] concerns SK-MEL-5 melanoma.
For assay [10], the system named is IGROV1 ovarian.

Each structure is given as a SMILES string.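 Test compounds were applied to cells in 96-well plates for 48 hours at 5 doses. Here, GI50 denotes the concentration required for 50% inhibition of growth. At the TGI there is no net growth.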 Some results are limits rather than exact numbers.

Consider `CCOC(=O)/C(=C/c1c(-c2ccccc2)[nH]c2ccccc12)C(=O)c1ccc(Cl)cc1`, for which the GI50 is 3.07 µM in assay [1]; 2.73 µM in assay [2]; 3.99 µM in assay [3]; 3.62 µM in assay [4]; 4.38 µM in assay [5]; 4.06 µM in assay [6]. Also, the GI50 was 7.96 µM in assay [7], 2.57 µM in assay [8], 1.78 µM in assay [9] and 19.9 µM in assay [10]. For the same compound, the TGI in [1] is over 100 µM; in assay [2], over 100 µM; in assay [3], 47.5 µM; in assay [4], over 100 µM; in assay [5], over 100 µM; in assay [6] it was over 100 µM. For the same compound, the TGI was over 100 µM in assay [7], 8.21 µM in [8], 4.1 µM in assay [9] and over 100 µM in assay [10].
In the case of `CN(C)c1ccc(N=C(C#N)c2nc(N)nc(N3CCOCC3)n2)cc1`, the GI50 in [1] is over 100 µM; in [2] it was 97.2 µM; in [3] it was over 100 µM; in assay [4], 23.3 µM; in [5], 66.2 µM; in assay [6], 52.9 µM. The GI50 was over 100 µM in assay [7], 60.8 µM in assay [8], 40.4 µM in assay [9] and 34 µM in [10]. The TGI in assay [1] is over 100 µM; in assay [2], over 100 µM; in assay [3], over 100 µM; in assay [4] it was 68.4 µM; in [5] it was over 100 µM; in [6], over 100 µM. Further, the TGI in assay [7], in assay [8], in assay [9] and in [10] was over 100 µM each time.
In the case of `COC(=O)Oc1nn(C(=O)OC)c(=O)c2ccccc12` (tested in a mixture with another compound), the TGI in [1], in assay [2], in assay [3], in assay [4], in assay [5] and in assay [6] was over 100 µM in each case. The TGI in assay [7], in assay [8], in assay [9] and in assay [10] was over 100 µM each time.
For the compound `CC1(C)OCC(C2OC(On3nnc4ccc(Cl)cc43)C3OC(C)(C)OC23)O1` (stereo not given), the TGI in assay [1], in [2], in assay [3], in [4], in assay [5] and in [6] was over 100 µM in each case. Also, the TGI in [7], in [8], in assay [9] and in assay [10] was over 100 µM throughout.
`COc1ccc(Nc2nc3c(N)cc(C(F)(F)F)cc3nc2-c2ccccc2)cc1`: the TGI in [1], in assay [2], in assay [3], in assay [4], in [5] and in [6] was over 100 µM each time. The TGI in assay [7], in assay [8], in assay [9] and in assay [10] was over 100 µM each time.
With `O=S(=O)(Nc1ccc2ccc3cccc4ccc1c2c34)c1ccccc1`, the TGI was over 100 µM in assay [1]; 53 µM in [2]; over 100 µM in [3]; over 100 µM in assay [4]; over 100 µM in assay [5]; over 100 µM in assay [6]. Besides, the TGI in assay [7], in [8], in assay [9] and in assay [10] was over 100 µM each time.
Turning to `Nc1ccc(C(=O)O)c2[nH]c3ccccc3c(=O)c12`, the TGI in [1], in assay [2], in [3], in assay [4], in assay [5] and in [6] was over 100 µM throughout. Also, the TGI in assay [7], in [8], in assay [9] and in [10] was over 100 µM throughout.
Regarding `COc1cc2c(cc1OCCCN1CCN(CCCOc3cc4c(cc3OC)C(=O)C3CCC[C@H]3C=N4)CC1)N=C[C@@H]1CCCC1C2=O` (stereo not given in full), the GI50 in assay [1] was 6.25 µM; in [2] it was 0.478 µM; in [3], 1.71 µM; in assay [4], 55.7 µM; in assay [5], 63.5 µM; in assay [6] it was 53.9 µM. In addition, the GI50 was 23.7 µM in assay [7], 0.313 µM in assay [8], 2.2 µM in assay [9] and 3.27 µM in assay [10]. Further, the TGI in assay [1] was 22.7 µM; in assay [2], over 74.3 µM; in assay [3], 4.8 µM; in assay [4], over 100 µM; in [5], over 100 µM; in [6], over 100 µM. The TGI was over 100 µM in assay [7], 2.53 µM in assay [8], 6.4 µM in assay [9] and over 23.6 µM in [10].
As to `COC12c3ccccc3-c3ccccc3C1[C@@H](C(=O)O)[C@H]2C(=O)O` (stereo not given in full), the TGI in assay [1], in [2], in [3], in assay [4], in assay [5] and in assay [6] was over 10 µM each time. Also, the TGI in assay [7], in assay [8], in [9] and in assay [10] was over 10 µM throughout.
On to `Nc1nccc(C#Cc2cncnc2Nc2ccc(OCc3cccc(F)c3)c(Cl)c2)n1`, for which the GI50 in [1] was 4.51 µM; in assay [2], 1.33 µM; in [3] it was 4.98 µM; in assay [4], 4.2 µM; in assay [5], 7.22 µM; in assay [6], 3.69 µM. For the same compound, the GI50 in assay [7] is 4.79 µM; in assay [8], 5.69 µM; in assay [9], 3.51 µM; in [10], 5.1 µM. Moreover, the TGI was 9.43 µM in assay [1]; over 19.2 µM in assay [2]; 9.34 µM in [3]; 10.6 µM in assay [4]; over 22.5 µM in assay [5]; 11.4 µM in assay [6]. Moreover, the TGI in assay [7] came out at 10 µM; in assay [8], 21.5 µM; in [9], 6.8 µM; in [10], 20 µM.

(Values after PubChem BioAssay (NCI).)
